# Assay results from ChEMBL document CHEMBL5120816, “Abietane diterpenes from Abies spectabilis and their anti-pancreatic cancer activity against the MIA PaCa-2 cell line” (Bioorg Med Chem Lett, 2022).
# Calls of active or inactive are those of the source. The rule behind the calls is not given here.
# Key:
# MIA PaCa-2 [1] = test: Preferential cytotoxicity against human MIA PaCa-2 cells in nutrient-deprived medium; type: functional
# [2] = Toxicity against human MIA PaCa-2 cells in nutrient-rich medium (DMEM); type: cell-based
# MIA PaCa-2 [3] = test: […] in human MIA PaCa-2 cells assessed as membrane blebbing , cell rupture and leakage of intracellular components into the medium at 20 uM incubated for 24 hrs in nutrient-deprived medium by Hoechst 33342 staining based assay"; type: functional
# MIA PaCa-2 [4] = test: Induction of cellular morphology changes in human MIA PaCa-2 cells assessed as rounding of cells and membrane rupture at 6.25 to 10 uM incubated for 24 hrs in nutrient-deprived medium by ethidium bromide-acridine orange double staining based EVOS FL digital microscopy"; type: functional, cell-based; details: dose 6.25-10 µM, DDE = dose-dependent effect
# MIA PaCa-2 [5] = test: Inhibition of AKT S473 phosphorylation in human MIA PaCa-2 cells at 10 to 20 uM incubated for 6 hrs in nutrient-deprived medium by Western blot analysis; type: cell-based; details: dose 10-20 µM
# MIA PaCa-2 [6] = test: Down regulation of autophagy marker expression in human MIA PaCa-2 cells assessed as reduction in Atg7 expression at 10 to 20 uM in nutrient-deprived medium by Western blot analysis; type: functional, cell-based; details: dose 10-20 µM
# MIA PaCa-2 [7] = test: Inhibition of cell migration of human MIA PaCa-2 cells assessed as open area level at 20 uM incubated for 48 hrs in nutrient-deprived medium by quantitative real-time cancer cell migration assay (reference value: 8.9%); type: functional; parameters: scale not given: the % may be the effect or the level left
# MIA PaCa-2 [8] = test: Down regulation of autophagy marker expression in human MIA PaCa-2 cells assessed as reduction in LC3-I expression at 10 to 20 uM in nutrient-deprived medium by Western blot analysis; type: functional, cell-based; details: dose 10-20 µM
# [9] = Effect on total AKt protein level in human MIA PaCa-2 cells at 10 to 20 uM incubated for 6 hrs in nutrient-deprived medium by Western blot analysis; type: toxicity, cell-based; details: mia paca-2, 6 h, dose 10-20 µM
# MIA PaCa-2 [10] = test: Down regulation of autophagy marker expression in human MIA PaCa-2 cells assessed as reduction in Atg12 expression at 10 to 20 uM in nutrient-deprived medium by Western blot analysis; type: functional, cell-based; details: dose 10-20 µM
# MIA PaCa-2 [11] = test: Inhibition of cell migration of human MIA PaCa-2 cells assessed as open area level at 20 uM incubated for 24 hrs in nutrient-deprived medium by quantitative real-time cancer cell migration assay (reference value: 100%); type: functional; parameters: scale not given: the % may be the effect or the level left
# MIA PaCa-2 [12] = test: Induction of apoptosis in human MIA PaCa-2 cells assessed as down regulation of Bcl2 expression at 10 to 20 uM incubated for 24 hrs in nutrient-deprived medium by Western blot analysis; type: functional, cell-based; details: dose 10-20 µM
# MIA PaCa-2 [13] = test: Down regulation of autophagy marker expression in human MIA PaCa-2 cells assessed as reduction in Atg5 expression at 10 to 20 uM in nutrient-deprived medium by Western blot analysis; type: functional, cell-based; details: dose 10-20 µM
# MIA PaCa-2 [14] = test: Induction of cell death in human MIA PaCa-2 cells assessed as rounding of cells and membrane rupture at 5 uM incubated for 24 hrs in nutrient-deprived medium by ethidium bromide-acridine orange double staining based EVOS FL digital microscopy"; type: functional
# [15] = Effect on total mTOR protein level in human MIA PaCa-2 cells at 10 to 20 uM incubated for 6 hrs in nutrient-deprived medium by Western blot analysis; type: toxicity, cell-based; details: mia paca-2, 6 h, dose 10-20 µM
# MIA PaCa-2 [16] = test: Induction of apoptosis in human MIA PaCa-2 cells assessed as down regulation of Bcl-xL expression at 10 to 20 uM incubated for 24 hrs in nutrient-deprived medium by Western blot analysis; type: functional, cell-based; details: dose 10-20 µM
# [17] = biological target: Serine/threonine-protein kinase mTOR (Homo sapiens) (UniProt P42345); test: Inhibition of mTOR S2481 phosphorylation in human MIA PaCa-2 cells at 10 to 20 uM incubated for 6 hrs in nutrient-deprived medium by Western blot analysis; type: cell-based; details: dose 10-20 µM
# MIA PaCa-2 [18] = test: Induction of apoptosis in human MIA PaCa-2 cells assessed as down regulation of caspase-3 expression at 10 to 20 uM incubated for 24 hrs in nutrient-deprived medium by Western blot analysis; type: functional, cell-based; details: dose 10-20 µM
# MIA PaCa-2 [19] = test: Down regulation of autophagy marker expression in human MIA PaCa-2 cells assessed as reduction in LC3-II expression at 10 to 20 uM in nutrient-deprived medium by Western blot analysis; type: functional, cell-based; details: dose 10-20 µM
SMILES,PC50 (MIA PaCa-2 [1]),Activity [2],also measured
COc1cc(C[C@H]2C(=O)OC[C@@H]2Cc2ccc(OC)c(OC)c2)ccc1O [ARCTIGENIN],0.7 µM,Non-Toxic,–
C[C@@]1(CO)CCC[C@]2(C)[C@H]3CCC(=O)C=C3CC[C@@H]12,35.8 µM,Non-Toxic,–
C=C/C(C)=C\C[C@@H]1[C@@]2(C)CCCC(C)(C)[C@@H]2CC(=O)[C@@]1(C)O,15.2 µM,Non-Toxic,–
CC(C)[C@@]1(O)C=C2C(=O)C[C@@H]3[C@](C)(CCC[C@@]3(C)C(=O)O)[C@H]2CC1,70.7 µM,Non-Toxic,–
CC(C)c1ccc2c(c1)CC[C@H]1[C@](C)(C(=O)O)CCC[C@]21C [DEHYDROABIETIC ACID],16.9 µM,Non-Toxic,–
CC(C)C1=CC[C@H]2C(=C1)C(=O)C[C@@H]1[C@]2(C)CCC[C@@]1(C)C(=O)O [ABIESADINE E],42.3 µM,Non-Toxic,–
CC(C)[C@]1(O)C=C2C(=O)C[C@@H]3[C@](C)(CCC[C@@]3(C)C(=O)O)[C@H]2CC1,>100 µM,Non-Toxic,–
CC(C)c1ccc2c(c1)CC[C@H]1[C@](C)(CO)CCC[C@]21C [POMIFERIN A],6.6 µM,Non-Toxic,Activity (MIA PaCa-2 [3]): Active; Activity (MIA PaCa-2 [4]): Dde; inhibition (MIA PaCa-2 [5]): Active; Activity (MIA PaCa-2 [6]): Active; Activity (MIA PaCa-2 [7]): 30.8%; Activity (MIA PaCa-2 [8]): Active; Activity [9]: Non-Toxic; Activity (MIA PaCa-2 [10]): Active; Activity (MIA PaCa-2 [11]): 64%; Activity (MIA PaCa-2 [12]): Active; Activity (MIA PaCa-2 [13]): Active; Activity (MIA PaCa-2 [14]): 100%; Activity [15]: Non-Toxic; Activity (MIA PaCa-2 [16]): Active; inhibition [17]: Active; Activity (MIA PaCa-2 [18]): Active; Activity (MIA PaCa-2 [19]): Active
CC(C)[C@@]1(O)C=C2C(=O)C[C@H]3[C@](C)(COC(=O)CCC(=O)O)CCC[C@]3(C)[C@H]2CC1,82.9 µM,Non-Toxic,–
C[C@]12CCC[C@@](C)(C(=O)O)[C@@H]1CCC1=CC(=O)CC[C@@H]12,55.5 µM,Non-Toxic,–
